# Legend:
# [1] = molecular target: T1, Acetylcholinesterase (Electrophorus electricus, UniProt O42275); assay: Mixed type inhibition of electric eel AChE using acetylthiocholine iodide as substrate preincubated for 20 mins followed by substrate addition and measured at 1 min intervals for 30 mins by Cornish-Bowden plot analysis
# [2] = molecular target: T1, Acetylcholinesterase; assay: Inhibition of electric eel AChE using acetylthiocholine iodide as substrate preincubated for 20 mins followed by substrate addition and measured at 1 min intervals for 30 mins by Ellman's method
# [3] = molecular target: T1, Acetylcholinesterase; assay: Mixed type inhibition of electric eel AChE using acetylthiocholine iodide as substrate preincubated for 20 mins followed by substrate addition and measured at 1 min intervals for 30 mins by Dixon plot analysis
# T1 sequence (O42275 whole entry): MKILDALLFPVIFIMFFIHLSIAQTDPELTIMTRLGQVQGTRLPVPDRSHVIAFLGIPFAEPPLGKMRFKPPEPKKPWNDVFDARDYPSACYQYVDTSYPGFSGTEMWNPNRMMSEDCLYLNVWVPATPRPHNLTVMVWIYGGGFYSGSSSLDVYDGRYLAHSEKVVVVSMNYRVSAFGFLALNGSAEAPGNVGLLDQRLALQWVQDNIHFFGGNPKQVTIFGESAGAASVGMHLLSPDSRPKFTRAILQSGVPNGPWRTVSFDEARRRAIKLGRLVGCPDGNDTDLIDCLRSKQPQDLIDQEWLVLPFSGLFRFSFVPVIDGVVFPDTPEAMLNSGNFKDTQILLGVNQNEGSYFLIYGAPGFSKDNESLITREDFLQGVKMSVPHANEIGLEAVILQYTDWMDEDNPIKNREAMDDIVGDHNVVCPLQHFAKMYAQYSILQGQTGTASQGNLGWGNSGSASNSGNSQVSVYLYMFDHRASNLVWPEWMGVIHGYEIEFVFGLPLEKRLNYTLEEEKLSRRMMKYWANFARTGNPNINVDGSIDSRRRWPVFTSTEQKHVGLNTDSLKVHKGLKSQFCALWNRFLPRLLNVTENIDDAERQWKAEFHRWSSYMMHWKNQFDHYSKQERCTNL
Structure (SMILES),Ki [1],IC50 ([2]; read-out: IC50),Ki [3],IC50 [2]
CCCCCCCCCCCCCCCCC/C=C/C(=O)O,7.15 µM,5 µM,1.51 µM,
CCCCCCCCCCCCCCCCCCC/C=C/C(=O)O,,11.7 µM,,
CCCCCCCCCCCCC/C=C/C(=O)O,,7.9 µM,,
CCCCCCCCCCCCCCC/C=C/C(=O)O,5.51 µM,4.3 µM,3.21 µM,
CCCCCCCCCCCCCCCCCCCC(=O)O [ARACHIDIC ACID],,12.8 µM,,
CCCCCCCCCCCCCCCCCCCCCC(=O)O [BEHENIC ACID],,,,Nd(Insoluble)
CCCCCCCCCCCCCCCC(=O)O [PALMITIC ACID],,10.1 µM,,
CCCCCCCCCCCCCCCCCC(=O)O [STEARIC ACID],3.62 µM,7.5 µM,4.4 µM,
